Laboratory results published in the supplement of paper PMC10307832.

Assays:
Assay in all cases: relative viability (nuclei count vs DMSO), 5 days (fraction); higher = more cells survive
[1] = compound: CN1CCN(CC1)C2=CC(=C(C=C2)NC3=NC=C4C(=N3)N(C5=CC=CC=C5C(=O)N4C)C)OC [XMD8-85] + Cc1cc(Nc2cc(N3CCN(C)CC3)nc(Sc3ccc(NC(=O)C4CC4)cc3)n2)n[nH]1 [Tozasertib] (partner 0.1 µM)
How it was run: (§1)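 Lung cancer cell lines in 1536-well plates were dosed by pin tool the day after seeding, either with one drug alone or with a fixed anchor-drug dose plus five library-drug doses (not always all listed) in √10 steps. After 5 days, cells were fixed and their nuclei stained in one step (final 0.05% Triton X-100, 1% formaldehyde, 1 ug/ml Hoechst), then counted on 4× images. Relative viability is the nuclei count in treated wells divided by that in vehicle wells. Values are medians of duplicate plates.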

[2] = compound: O=C(O)C(Cc1ccccc1[N+](=O)[O-])=NNc1nc(-c2ccc(Cl)c(Cl)c2)cs1 (mixture of isomers) [4EGI-1] + C[C@]1(O)C[C@@H](c2nc(-c3ccc4ccc(-c5ccccc5)nc4c3)c3c(N)nccn32)C1 [Linsitinib] (partner 1 µM)
How it was run: as §1

[3] = compound: O=C(O)C(Cc1ccccc1[N+](=O)[O-])=NNc1nc(-c2ccc(Cl)c(Cl)c2)cs1 (mixture of isomers) [4EGI-1] + CC1(C)CCC(c2ccc(Cl)cc2)=C(CN2CCN(c3ccc(C(=O)NS(=O)(=O)c4ccc(N[C@H](CCN5CCOCC5)CSc5ccccc5)c(S(=O)(=O)C(F)(F)F)c4)cc3)CC2)C1 [Navitoclax] (partner 0.5 µM)
How it was run: as §1

[4] = compound: O=C(O)C(Cc1ccccc1[N+](=O)[O-])=NNc1nc(-c2ccc(Cl)c(Cl)c2)cs1 (mixture of isomers) [4EGI-1] + CC(=O)c1c(C)c2cnc(Nc3ccc(N4CCNCC4)cn3)nc2n(C2CCCC2)c1=O [Palbociclib] (partner 0.5 µM)
How it was run: as §1

Cell Line | relative viability ([1]; first compound 0.08 µM) | relative viability ([1]; first compound 0.253 µM) | relative viability ([1]; first compound 0.8 µM) | relative viability ([1]; first compound 2.53 µM) | relative viability ([1]; first compound 8 µM) | relative viability ([2]; first compound 0.5 µM) | relative viability ([2]; first compound 1.581 µM) | relative viability ([2]; first compound 5 µM) | relative viability ([2]; first compound 15.81 µM) | relative viability ([2]; first compound 50 µM) | relative viability ([3]; first compound 0.5 µM) | relative viability ([3]; first compound 1.581 µM) | relative viability ([3]; first compound 5 µM) | relative viability ([3]; first compound 15.81 µM) | relative viability ([3]; first compound 50 µM) | relative viability ([4]; first compound 0.5 µM) | relative viability ([4]; first compound 1.581 µM) | relative viability ([4]; first compound 5 µM) | relative viability ([4]; first compound 15.81 µM) | relative viability ([4]; first compound 50 µM)
HCC-78 | 0.407 | 0.465 | 0.397 | 0.434 | 0.296 | 0.612 | 0.373 | 0.453 | 0.484 | 0.479 | 0.96 | 0.492 | 0.753 | 0.829 | 0.802 | 0.471 | 0.462 | 0.434 | 0.432 | 0.488
HCC-366 | 0.138 | 0.128 | 0.0974 | 0.0608 | 0.0744 | 0.791 | 0.697 | 0.741 | 0.772 | 0.382 | 1.18 | 0.954 | 1.14 | 1.15 | 1.01 | 0.396 | 0.224 | 0.396 | 0.272 | 0.0604
HCC-827 | – | 0.437 | 0.642 | 0.387 | 0.365 | 0.969 | 0.866 | 0.905 | – | 0.878 | 1.04 | 0.936 | 0.938 | – | 0.789 | 0.521 | 0.403 | 0.565 | – | 0.5
HOP-62 | 0.371 | 0.342 | 0.403 | 0.301 | 0.177 | 1.19 | – | 1.16 | 1.03 | 0.707 | 1.11 | – | 1.02 | 0.995 | 1.06 | 0.449 | 0.416 | 0.489 | 0.505 | 0.319
